From the supplement of paper PMC6723410

System: GUMC-403
Assay: viability at highest tested concentration (max response) relative to DMSO (% of DMSO control); higher = less cytotoxic
Conditions: library / dose series: MIPE library, 11-point 1:3 dilution, 48 h
Outline: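 The value is viability at the highest tested concentration, expressed relative to vehicle control. Patient-derived GUMC-403 papilloma cells, grown by conditional reprogramming, were seeded at 700/well in 5 μL F + Y medium in 1536-well plates. After an overnight incubation at 37 °C, they received 23 nL of compound by pin tool for 48 h. Readout was CellTiter-Glo luminescence on a ViewLux, normalised to vehicle wells (100%) and empty wells (0%).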

Row | SMILES | viability (top concentration 46.1 µM) | also measured
1 | COCCCOc1cc(C[C@@H](C[C@H](N)[C@@H](O)C[C@H](C(=O)NCC(C)(C)C(N)=O)C(C)C)C(C)C)ccc1OC | 130 | 
2 | COc1ccc(C2CNC(=O)C2)cc1OC1CCCC1 (stereo not given) | 136 | 
3 | Cc1ccc(-n2nc(C(C)(C)C)cc2NC(=O)Nc2ccc(OCCN3CCOCC3)c3ccccc23)cc1 | 56 | 
4 | NCCc1ccc(O)c(O)c1 | 108 | 
5 | COC1=CC(=C2C(=O)N(COC/3=C/C(=O)N4\C=C/C=C(OCCN5CCCCC5)\C4=N3)[S+]([O-])(=O)C2=C1)C(C)C | 122 | 
6 | CC1=CC(=CC(=C1C\C2=N\CCN2)C)C(C)(C)C | 130 | 
7 | CNC(=O)c1ccc(N2C(=S)N(c3ccc(C#N)c(C(F)(F)F)c3)C(=O)C23CCC3)cc1F | 81.8 | 
8 | CN1\C(=C(\O)C2=CC=CC=C2[S+]1([O-])=O)C(=O)NC3=NC=C(C)S3 | 121 | 
9 | C[S+]([O-])c1ccc(-c2nc(-c3ccc(F)cc3)c(-c3ccncc3)[nH]2)cc1 (stereo not given) |  | viability (top concentration 92.2 µM): 71.3
10 | COCCOc1ccc2c(c1)ncn2-c1ccc2cccc(N3CCC(N)CC3)c2n1 | 87 | 
11 | CN(C)[C@H]\1[C@@H]2C[C@H]3C(=C(O)\[C@]2(O)C(=O)\C(=C1O)C(N)=O)/C(=O)C4=C(O)C=CC=C4[C@@]3(C)O | 106 | 
12 | O=c1[nH]c2ccccc2n1CCCN1CCC(n2c(=O)[nH]c3cc(Cl)ccc32)CC1 | 130 | 
13 | CC/1=C/C(=O)N(O)/C(=C1)C2CCCCC2 | 27.2 | 
14 | CCOC(=O)[C@H](CCc1ccccc1)N[C@H]1CS[C@H](c2cccs2)CN(CC(=O)O)C1=O.Cl | 118 | 
15 | CNC(=O)c1ccc(N2C(=S)N(c3ccc(C#N)c(C(F)(F)F)c3)C(=O)C2(C)C)cc1F | 119 | 
16 | CC(C)C[C@@H](N)[C@H](O)C(=O)N[C@H](C(=O)N[C@H](C(=O)N[C@@H](CC(=O)O)C(=O)O)C(C)C)C(C)C | 85.7 | 
17 | CCCNCC(O)COc1ccccc1C(=O)CCc1ccccc1 (stereo not given) | 90.5 | 
18 | Cc1c[nH]c(-c2cnc(NCCNc3ccc(C#N)cn3)nc2-c2ccc(Cl)cc2Cl)n1 | 77.1 | 
19 | OC(c1cc(C(F)(F)F)nc2c(C(F)(F)F)cccc12)C1CCCCN1 (stereo not given) | 97.9 | 
20 | CC(C)(C)/[N+]([O-])=C/c1ccc([S+](=O)([O-])[O][Na])cc1[S+](=O)([O-])[O][Na] | 84.5 | 

Row | SMILES | viability (top concentration 46.1 µM) | also measured
21 | Cc1c(C(=O)c2cccc3ccccc23)c2cccc3c2n1[C@H](CN1CCOCC1)CO3 | 76.9 | 
22 | CC1=CC=C2\N=C/3N(CC[C@@]3(O)C(=O)C2=C1)C4=CC=CC=C4 | 104 | 
23 | Cc1cnc(NC(=O)Nc2cc(Br)c(C)cc2OC[C@@H]2CNCCO2)cn1 | 110 | 
24 | O=C(NCc1ccncc1)C12C[C@H]3C[C@@H](C1)CC(c1ccc(Cl)cc1)(C3)C2 | 108 | 
25 | CCCCCCCCCCCCc1ccc([S+](=O)([O-])Nc2nncs2)cc1 | 118 | 
26 | NC12CC3CC(CC(C3)C1)C2 | 136 | 
27 | CCC(C)CCCCC(=O)N[C@@H](CCN)C(=O)NC(C(=O)N[C@H](CCN)C(=O)N[C@@H]1CCNC(=O)C([C@@H](C)O)NC(=O)[C@@H](CCN)NC(=O)[C@@H](CCN)NC(=O)[C@@H](CC(C)C)NC(=O)[C@H](Cc2ccccc2)NC(=O)[C@H](CCN)NC1=O)[C@@H](C)O (stereo not given in full) | 126 | 
28 | OC[C@H]1O[C@@H](Oc2cc(O)cc(/C=C/c3ccc(O)cc3)c2)[C@H](O)[C@@H](O)[C@@H]1O | 128 | 
29 | COC(=O)C\1=C(C)\N\C(=C(/C1C2=CC=CC3=NON=C23)C(=O)OC(C)C)C (stereo not given) | 89.7 | 
30 | COc1cccc2c(NCc3ccccc3)nc(-n3c(N)nc4ccccc43)nc12 | 131 | 
31 | COc1ccc(/C=C\c2cc(OC)c(OC)c(OC)c2)cc1NC(=O)[C@H](N)CO | 85.1 | 
32 | O=C1c2c(O)cc(O)cc2OC(c2ccc(O)c(O)c2)C1O (stereo not given) | 116 | 
33 | C[N]1C2=C(SC(=C2)[S+](C)[O-])C\3=C1C(=O)N(CC4=CC(=CC=C4)N)\N=C3 (stereo not given) | 106 | 
34 | CCC[C@H](NC(=O)[C@@H]1[C@H]2CCC[C@H]2CN1C(=O)[C@@H](NC(=O)[C@@H](NC(=O)c1cnccn1)C1CCCCC1)C(C)(C)C)C(=O)C(=O)NC1CC1 | 117 | 
35 | Cc1nccn1CC1CCc2c(c3ccccc3n2C)C1=O (stereo not given) | 103 | 
36 | C[C@]\12CC[C@H](O)CC1=C/C[C@@H]3[C@@H]2CC[C@@]\4(C)[C@H]3C\C=C4C5=CN=CC=C5 |  | viability (top concentration 23 µM): 110
37 | [O-]C(=O)C/1=N/C(=O)NC(=O)N1 |  | viability (top concentration 23 µM): 90.2
38 | COc1ccnc(C[S+]([O-])c2nc3cc(OC(F)F)ccc3[nH]2)c1OC (stereo not given) | 98.7 | 
39 | Cc1cn2cc(C(=O)N(C)CCO)cc(N[C@@H]3CCOc4cccc(C)c43)c2n1 | 144 | 
40 | CNC(=O)[C@H](CC/1=C/N=C\2/C=C\C\C=C12)NC(=O)[C@H](CC(C)C)CC(=O)NO | 66.4 | 

Row | SMILES | viability (top concentration 46.1 µM) | also measured
41 | COc1ccc([S+](=O)([O-])Nc2cc(-c3c(O)ccc4ccccc34)c(O)c3ccccc23)cc1 | 117 | 
42 | COc1cc[nH]c2ncc(C(=O)C(=O)N3CCN(C(=O)c4ccccc4)C[C@H]3C)c1-2 | 134 | 
43 | COC(=O)c1ccc2c(c1)NC(=O)/C2=C(\Nc1ccc(N(C)C(=O)CN2CCN(C)CC2)cc1)c1ccccc1 | 112 | 
44 | CN[S+](=O)([O-])Cc1ccc2[nH]cc(CCN(C)C)c2c1 | 126 | 
45 | FC(F)(F)C1=CC=C2C(SCCCCCO\C3=C\O\C(CN4CCOCC4)=C/C3=O)=CC=NC2=C1 | 110 | 
46 | CC(=O)OC[C@@H]1O[C@H]([C@H](OC(C)=O)[C@@H]1OC(C)=O)N2\C=C/C(=O)NC2=O | 110 | 
47 | CCOC(=O)[C@H]1O[C@@H]1C(=O)N[C@@H](CC(C)C)C(=O)NCCC(C)C | 109 | 
48 | CC/1=C(/C(CC(=O)N1)C2=CC=C(C=C2)C(F)(F)F)C(=O)NC3=C(F)C=C4[NH]N=CC4=C3 (stereo not given) | 108 | 
49 | O=C(O)c1cccnc1 | 103 | 
50 | COc1cc(N2CCC(N3CCN(C)CC3)CC2)ccc1Nc1ncc(Cl)c(Nc2ccccc2[S+](=O)([O-])C(C)C)n1 | 73.5 | 
51 | COCCCOc1ccnc(C[S+]([O-])c2nc3ccccc3[n-]2)c1C (stereo not given) | 120 | 
52 | O=C(Nc1ccncc1)C(=O)c1cn(Cc2ccc(Cl)cc2)c2ccccc12 | 112 | 
53 | O=C(/C=C/c1cccnc1)NCCCCC1CCN(C(=O)c2ccccc2)CC1 | 128 | 
54 | O=C1N\2CCC3=C([NH]C4=C3C=CC=C4)C2=N/C5=CC=CC=C15 | 109 | 
55 | CCCCCCCN(CC)CCCC(O)c1ccc(NS(C)(=O)=O)cc1.CCCCCCCN(CC)CCCC(O)c1ccc(NS(C)(=O)=O)cc1.O=C(O)/C=C/C(=O)O (stereo not given) | 106 | 
56 | N#C[C@@H]1C[C@@H]2C[C@@H]2N1C(=O)[C@@H](N)C12CC3CC(CC(O)(C3)C1)C2 | 111 | 
57 | CC(=O)O[C@@]12CO[C@@H]1C[C@H](O)[C@]3(C)[C@@H]2[C@H](OC(=O)C4=CC=CC=C4)[C@]5(O)C[C@H](OC(=O)C(O)[C@@H](NC(=O)OC(C)(C)C)C6=CC=CC=C6)C(=C(/[C@@H](O)C3=O)C5(C)C)/C (stereo not given in full) | 103 | 
58 | CCC(CC)[C@H](NC(C)=O)[C@@H]1[C@H](O)[C@@H](C(=O)O)C[C@H]1NC(=N)N | 106 | 
59 | CC(C)C(=O)Oc1ccc(CO)cc1[C@H](CCN(C(C)C)C(C)C)c1ccccc1 | 84.7 | 
60 | C[C@](N)(Cc1ccc(O)c(O)c1)C(=O)O | 89.6 | 
